15 molecules from US10364256B2 (GlaxoSmithKline Intellectual Property Development Limited, priority 2015, dated 2019) can be followed below.

Like-named read-outs stand apart in the source and are kept apart here.

The EC50 is the midpoint of the concentration-response curve. Usually IC50 stands for the concentration that gives 50% inhibition.

In assay [1] the test system is NQO1 specific enzyme activity in BEAS-2B cells (marker for NRF2 activation). Description: BEAS-2B NQO1 MTT Assay. Type of assay: cell-based. As to conditions: Homo sapiens, compound incubated 48 hours, read-out: EC50 (NQO1 specific enzyme activity induction). The method, boiled down: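 BEAS-2B cells treated with compound for 48 h at 37 °C, then lysed; NQO1 activity in lysates measured kinetically by MTT reduction at A570 over 30 min. pEC50 from 3-parameter fit of ΔOD/min versus log concentration; lysate also taken for Cell Titer Glo.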

Assay [2] has as its target T1, Keap1 Kelch domain (321-609) / TAMRA-labeled 16mer NRF2 peptide (ETGE motif) (Homo sapiens, UniProt Q14145).
T1 construct: the Kelch domain (321-609) of Keap1 is used
Description: NRF2-Keap1 FP Assay (Keap1 Kelch fluorescence polarization). Type of assay: binding. Particulars: 20 nM Keap1 (321-609), 8 nM Tamra labeled peptide. In a few lines:
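Compound dilutions (3-fold) were incubated 1 hr at room temperature with 20 nM Keap1 Kelch (321-609) and 8 nM TAMRA-labeled ETGE 16mer peptide. Buffer was 50 mM Tris pH 8.0, 100 mM NaCl, 5 mM MgCl2, 1 mM DTT, 2 mM CHAPS, 0.005% BSA. Fluorescence polarization (mP) was normalized to controls and fitted with a four-parameter equation to give pIC50.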
On the technique in general: Fluorescence polarisation rises when a labelled molecule tumbles more slowly, as on binding a larger partner.

The target of assay [3] is T2, full length Keap1 protein / full length NRF2 protein (Homo sapiens, UniProt Q14145).
T2 construct: full length NRF2 protein and full length Keap1 protein (Keap1 exists a dimer) are used; His
T2 sequence (Q14145 whole entry): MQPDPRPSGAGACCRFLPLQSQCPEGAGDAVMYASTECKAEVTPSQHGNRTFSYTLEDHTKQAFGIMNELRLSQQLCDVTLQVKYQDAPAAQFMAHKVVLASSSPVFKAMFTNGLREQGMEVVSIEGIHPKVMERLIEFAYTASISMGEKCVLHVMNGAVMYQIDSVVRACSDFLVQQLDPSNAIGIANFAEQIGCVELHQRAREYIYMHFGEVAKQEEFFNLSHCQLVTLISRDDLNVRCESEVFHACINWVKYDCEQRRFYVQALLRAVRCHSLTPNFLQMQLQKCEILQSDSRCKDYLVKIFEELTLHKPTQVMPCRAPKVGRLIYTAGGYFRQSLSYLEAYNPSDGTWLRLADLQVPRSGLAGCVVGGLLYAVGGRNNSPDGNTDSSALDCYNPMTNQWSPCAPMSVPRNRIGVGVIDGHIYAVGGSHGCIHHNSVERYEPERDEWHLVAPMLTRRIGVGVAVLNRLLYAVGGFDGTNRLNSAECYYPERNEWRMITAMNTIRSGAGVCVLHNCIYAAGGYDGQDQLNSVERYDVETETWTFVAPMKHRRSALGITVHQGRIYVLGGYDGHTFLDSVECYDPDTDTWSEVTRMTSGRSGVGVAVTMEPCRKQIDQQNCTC
Kind of assay: NRF2-Keap1 TR-FRET Assay. Format: binding. Particulars: 25 nM Keap1-FlagHis and 50 nM biotin-NRF2 added. In a few lines:
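Full-length Keap1-FlagHis preincubated with compound 2.25 h at 37 °C, then biotin-NRF2 added for 1.25 h at 4 °C, in Tris pH 8.0 with MgCl2, NaCl, BSA, DTT, CHAPS. TR-FRET 665/615 nm ratio normalised to with- and without-protein 1% DMSO controls; pIC50 from four-parameter fit.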
(In TR-FRET formats the signal depends on donor and acceptor labels being close together.)

T1 sequence (Q14145 321-609): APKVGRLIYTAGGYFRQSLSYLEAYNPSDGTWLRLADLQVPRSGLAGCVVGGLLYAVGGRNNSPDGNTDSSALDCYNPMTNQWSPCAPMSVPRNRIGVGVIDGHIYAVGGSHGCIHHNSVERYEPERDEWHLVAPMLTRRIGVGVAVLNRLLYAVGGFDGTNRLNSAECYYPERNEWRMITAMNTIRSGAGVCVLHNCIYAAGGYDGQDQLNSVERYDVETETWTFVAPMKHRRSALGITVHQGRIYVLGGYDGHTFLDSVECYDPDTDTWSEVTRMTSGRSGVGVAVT

`Cn1cc(C2CC2c2c(C(=O)O)cnn2-c2cccc(-c3cccc(OCC4CCCOC4)c3)c2)nn1` (stereo not drawn) [Example 169, 5-(2-(1-Methyl-1H-1,2,3-triazol-4-yl)cyclopropyl)-1-(3′-((tetrahydro-2H-pyran-3-yl)methoxy)-[1,1′-biphenyl]-3-yl)-1H-pyrazole-4-carboxylic acid]: the 50% effective concentration (EC50) in assay [1] was 1000 to 10000 nM. For the same molecule, the IC50 in assay [2] and in assay [3] was 100 to 1000 nM each time.

`CCCC(COc1cccc(-c2cccc(-n3ncc(C(=O)O)c3C3CC3c3cn(C)nn3)c2)c1)C1CCCCC1` (stereo not drawn) [Example 172, 1-(3′-((2-Cyclohexylpentyl)oxy)-[1,1′-biphenyl]-3-yl)-5-(2-(1-methyl-1H-1,2,3-triazol-4-yl)cyclopropyl)-1H-pyrazole-4-carboxylic acid]: in assay [1], the concentration for a half-maximal effect (EC50) fell in the range of 100 to 1000 nM. In addition, the results for the IC50 in assay [2] and in assay [3] were 100 to 1000 nM and 1000 to 10000 nM, respectively.

Consider `CC(COc1cccc(-c2cccc(-n3ncc(C(=O)O)c3C3CC3c3cn(C)nn3)c2)c1)C1CCCCC1` (stereo not drawn) [Example 173, 1-(3′-(2-Cyclohexylpropoxy)-[1,1′-biphenyl]-3-yl)-5-(2-(1-methyl-1H-1,2,3-triazol-4-yl)cyclopropyl)-1H-pyrazole-4-carboxylic acid], for which, in assay [1], the EC50 lay in the range of 10 to 100 nM. The half-inhibitory concentration (IC50) fell in the range of 10 to 100 nM in assay [2] and 100 to 1000 nM in assay [3].

As to `Cn1cc(C2CC2c2c(C(=O)O)cnn2-c2cccc(-c3cccc(OCC4CCOCC4)c3)c2)nn1` (stereo not drawn) [Example 174, 5-(2-(1-Methyl-1H-1,2,3-triazol-4-yl)cyclopropyl)-1-(3′-((tetrahydro-2H-pyran-4-yl)methoxy)-[1,1′-biphenyl]-3-yl)-1H-pyrazole-4-carboxylic acid], the EC50 in assay [1] lay in the range of 1000 to 10000 nM. Further, the half-inhibitory concentration (IC50) was in the range of 10 to 100 nM in assay [2] and 100 to 1000 nM in assay [3].

As for `Cn1cc(C2CC2c2c(C(=O)O)cnn2-c2cccc(-c3cccc(OCC4CCCCO4)c3)c2)nn1` (stereo not drawn) [Example 175, 5-(2-(1-Methyl-1H-1,2,3-triazol-4-yl)cyclopropyl)-1-(3′-((tetrahydro-2H-pyran-2-yl)methoxy)-[1,1′-biphenyl]-3-yl)-1H-pyrazole-4-carboxylic acid], the EC50 in assay [1] lay in the range of 1000 to 10000 nM. The IC50 is 10 to 100 nM in assay [2] and 100 to 1000 nM in assay [3].

As for `CC(C)Oc1cccc(-c2cccc(-n3ncc(C(=O)O)c3C3CC3c3cn(C)nn3)c2)c1F` (stereo not drawn) [Example 181, 1-(2′-Fluoro-3′-isopropoxy-[1,1′-biphenyl]-3-yl)-5-(2-(1-methyl-1H-1,2,3-triazol-4-yl)cyclopropyl)-1H-pyrazole-4-carboxylic acid], the concentration for a half-maximal effect (EC50) in assay [1] was in the range of 1000 to 10000 nM. In addition, the IC50 in assay [2] is 100 to 1000 nM; in assay [3], 1000 to 10000 nM.

As to `CCOC(c1cccc(-c2cccc(-n3ncc(C(=O)O)c3C3CC3c3cn(C)nn3)c2)c1)C(C)C` (stereo not drawn) [Example 182, 1-(3′-(1-Ethoxy-2-methylpropyl)-[1,1′-biphenyl]-3-yl)-5-(2-(1-methyl-1H-1,2,3-triazol-4-yl)cyclopropyl)-1H-pyrazole-4-carboxylic acid], the EC50 in assay [1] was in the range of 100 to 1000 nM. The IC50 fell in the range of 10 to 100 nM in assay [2] and 100 to 1000 nM in assay [3].

Regarding `COC(c1cccc(-c2cccc(-n3ncc(C(=O)O)c3C3CC3c3cn(C)nn3)c2)c1)C(C)C` (stereo not drawn) [Example 184, 1-(3′-(1-Methoxy-2-methylpropyl)-[1,1′-biphenyl]-3-yl)-5-(2-(1-methyl-1H-1,2,3-triazol-4-yl)cyclopropyl)-1H-pyrazole-4-carboxylic acid], the EC50 in assay [1] was in the range of 100 to 1000 nM. For the same molecule, the concentration for half-maximal inhibition (IC50) in assay [2] was 10 to 100 nM; in assay [3], 100 to 1000 nM.

As to `Cn1cc(C2CC2c2c(C(=O)O)cnn2-c2cc(C#N)cc(-c3cccc(OCC4CCCCC4)c3)c2)nn1` (stereo not drawn) [Example 189, 1-(5-cyano-3′-(cyclohexylmethoxy)-[1,1′-biphenyl]-3-yl)-5-(2-(1-methyl-1H-1,2,3-triazol-4-yl)cyclopropyl)-1H-pyrazole-4-carboxylic acid], the concentration giving a half-maximal response (EC50) in assay [1] was 1000 to 10000 nM. Moreover, the 50% inhibitory concentration (IC50) was greater than 10000 nM in assay [2] and 10000 to 100000 nM in assay [3].

Regarding `Cn1cnc(C2CC2c2c(C(=O)O)cnn2-c2cccc(-c3cccc(OCC4CCCCC4)c3)c2)c1` (stereo not drawn) [Example 190, 1-(3′-(cyclohexylmethoxy)-[1,1′-biphenyl]-3-yl)-5-(2-(1-methyl-1H-imidazol-4-yl)cyclopropyl)-1H-pyrazole-4-carboxylic acid], in assay [1], the EC50 is 1000 to 10000 nM. Also, the IC50 in assay [2] fell in the range of 1000 to 10000 nM; in assay [3], 10000 to 100000 nM.

Consider `CCC[C@@H]1CCCCN1C(=O)c1cc(F)cc(-c2cccc(-n3ncc(C(=O)O)c3C3CC3c3cn(C)nn3)c2)c1` (stereo partly drawn) [Example 198, 1-(3′-Fluoro-5′-((R)-2-propylpiperidine-1-carbonyl)-[1,1′-biphenyl]-3-yl)-5-(2-(1-methyl-1H-1,2,3-triazol-4-yl)cyclopropyl)-1H-pyrazole-4-carboxylic acid], for which the EC50 in assay [1] (BEAS-2B, 48 h) fell in the range of 100 to 1000 nM. Further, the 50% inhibitory concentration (IC50) in assay [2] and in assay [3] was 10 to 100 nM each time.

Regarding `CCC[C@@H]1CCCCN1C(=O)c1cccc(-c2cccc(-n3nc(C)c(C(=O)O)c3C3CC3)c2)c1` [Example 203, (R)-5-Cyclopropyl-3-methyl-1-(3′-(2-propylpiperidine-1-carbonyl)-[1,1′-biphenyl]-3-yl)-1H-pyrazole-4-carboxylic acid], in assay [1], the 50% effective concentration (EC50) was in the range of 1000 to 10000 nM. Besides, the IC50 in assay [2] and in assay [3] was 1000 to 10000 nM throughout.

`O=C(O)c1cnn(-c2cccc(-c3cccc(-n4ncc5c4C(C4CC4)CC5)c3)c2)c1C1CC1` (stereo not drawn) [Example 207, 5-Cyclopropyl-1-(3′-(6-cyclopropyl-5,6-dihydrocyclopenta[c]pyrazol-1(4H)-yl)-[1,1′-biphenyl]-3-yl)-1H-pyrazole-4-carboxylic Acid]: in assay [1], the EC50 was in the range of 1000 to 10000 nM. For the same molecule, the figures for the IC50 in assay [2] and in assay [3] were 100 to 1000 nM and 1000 to 10000 nM, respectively.

As for `Cc1nc(-c2cccc(-c3cccc(-n4ncc(C(=O)O)c4C4CC4)c3)c2)no1` [Example 211, 5-Cyclopropyl-1-(3′-(5-methyl-1,2,4-oxadiazol-3-yl)-[1,1′-biphenyl]-3-yl)-1H-pyrazole-4-carboxylic acid], the EC50 in assay [1] is 1000 to 10000 nM. In addition, the IC50 in assay [2] is greater than 10000 nM; in assay [3] it was 10000 to 100000 nM.

With `Cn1cc(C2CC2c2c(C(=O)O)cnn2-c2cccc(-c3cccc(C(O)C4CCCCC4)c3)c2)nn1` (stereo not drawn) [Example 220, 1-(3′-(Cyclohexyl(hydroxy)methyl)-[1,1′-biphenyl]-3-yl)-5-(2-(1-methyl-1H-1,2,3-triazol-4-yl)cyclopropyl)-1H-pyrazole-4-carboxylic acid], the EC50 in assay [1] fell in the range of 1000 to 10000 nM. Moreover, the 50% inhibitory concentration (IC50) in assay [2] was 10 to 100 nM; in assay [3], 100 to 1000 nM.
